Assay results: patent US20220372067A1, “3.ALPHA.-HYDROXY-17.BETA.-AMIDE NEUROACTIVE STEROIDS AND COMPOSITIONS THEREOF” (SAGE THERAPEUTICS, INC., priority 2018, published 2022)

These molecules were tested against GABAA receptor (TBPS binding site), rat brain cortical membranes (assay: [35S]-TBPS binding assay, rat brain cortical membranes in the presence of 5 mM GABA). Conditions: inhibition of 3 nM [35S]-TBPS binding.
Experimental: [^35S]-t-Butylbicyclophosphorothionate (TBPS) binding assays using rat brain cortical membranes in the presence of 5 mM GABA has been described (Gee et al, J. Pharmacol. Exp. Ther. 1987, 241, 346-353; Hawkinson et al, Mol. Pharmacol. 1994, 46, 977-985; Lewin, A. H et al., Mol. Pharmacol. 1989, 35, 189-194).
Briefly, cortices are rapidly removed following decapitation of carbon dioxide-anesthetized Sprague-Dawley rats (200-250 g). The cortices are homogenized in 10 volumes of ice-cold 0.32 M sucrose using a glass/teflon homogenizer and centrifuged at 1500×g for 10 min at 4° C. The resultant supernatants are centrifuged at 10,000×g for 20 min at 4° C. to obtain the P2 pellets. The P2 pellets are resuspended in 200 mM NaCl/50 mM Na—K phosphate pH 7.4 buffer and centrifuged at 10,000×g for 10 min at 4° C. This washing procedure is repeated twice and the pellets are resuspended in 10 volumes of buffer. Aliquots ([…]) of the membrane suspensions are incubated with 3 nM [^35S]-TBPS and […] aliquots of test drug dissolved in dimethyl sulfoxide (DMSO) (final 0.5%) in the presence of 5 mM GABA. The incubation is brought to a final volume of 1.0 mL with buffer. Nonspecific binding is determined in the presence of […] and ranged from 15 to 25%. Following a 90 min incubation at room temp, the assays are terminated by filtration through glass fiber filters (Schleicher and Schuell No. 32) using a cell harvester (Brandel) and rinsed three times with ice-cold buffer. Filter bound radioactivity is measured by liquid scintillation spectrometry. Non-linear curve fitting of the overall data for each drug averaged for each concentration is done using Prism (GraphPad). […] The concentration of test compound producing 50% inhibition (IC50) of specific binding and the maximal extent of inhibition (Imax) are determined for the individual experiments with the same model used for the overall data and then the means±SEM.s of the individual experiments are calculated.
Various compounds are or can be screened to determine their potential as modulators of [^35S]-TBPS binding in vitro. These assays are or can be performed in accordance with the above
With CCOC[C@@]1(O)CC[C@@]2(CC)[C@@H](CC[C@H]3[C@@H]4CC[C@H](C(=O)Nc5ccc(C#N)cn5)[C@@]4(C)CC[C@@H]32)C1 [Example 12, (3R,5S,8S,9S,10S,13S,14S,17S)-N-(5-cyanopyridin-2-yl)-3-(ethoxymethyl)-10-ethyl-3-hydroxy-13-methylhexadecahydro-1H-cyclopenta[a]phenanthrene-17-carboxamide] the IC50 was < 100 nM.
In the case of COC[C@@]1(O)CC[C@H]2[C@H](CC[C@@H]3[C@@H]2CC[C@]2(C)[C@@H](C(=O)Nc4cccc(N5CCCC5=O)n4)CC[C@@H]32)C1 [Example 50], the IC50 is reported as < 100 nM.
In the case of CCOC[C@@]1(O)CC[C@H]2[C@H](CC[C@@H]3[C@@H]2CC[C@]2(C)[C@@H](C(=O)Nc4ncc(C)cc4C)CC[C@@H]32)C1 [Example 62], the IC50 is reported as 100 to 1000 nM.
With COC[C@@]1(O)CC[C@H]2[C@@H](CC[C@@H]3[C@@H]2CC[C@]2(C)[C@@H](C(=O)Nc4cccc(C)n4)CC[C@@H]32)C1 [Example 7, (3R,5S,8R,9R,10S,13S,14S,17S)-3-hydroxy-3-(methoxymethyl)-13-methyl-N-(6-methylpyridin-2-yl)hexadecahydro-1H-cyclopenta[a]phenanthrene-17-carboxamide] the IC50 was < 100 nM.
With CCOC[C@@]1(O)CC[C@H]2[C@H](CC[C@@H]3[C@@H]2CC[C@]2(C)[C@@H](C(=O)Nc4cc(C#N)nn4C)CC[C@@H]32)C1 [Example 37] the IC50 was < 100 nM.
In the case of COC[C@@]1(O)CC[C@H]2[C@H](CC[C@@H]3[C@@H]2CC[C@]2(C)[C@@H](C(=O)Nc4ccc(C#N)nc4C)CC[C@@H]32)C1 [Example 41], the IC50 is reported as < 100 nM.
With COC[C@@]1(O)CC[C@H]2[C@H](CC[C@@H]3[C@@H]2CC[C@]2(C)[C@@H](C(=O)Nc4ccc(C(F)(F)F)nc4C)CC[C@@H]32)C1 [Example 46] the IC50 was < 100 nM.
In the case of CCOC[C@@]1(O)CC[C@H]2[C@H](CC[C@@H]3[C@@H]2CC[C@]2(C)[C@@H](C(=O)Nc4c5c(nn4C)CCCC5)CC[C@@H]32)C1 [Example 54], the IC50 is reported as 100 to 1000 nM.
CCOC[C@@]1(O)CC[C@H]2[C@H](CC[C@@H]3[C@@H]2CC[C@]2(C)[C@@H](C(=O)Nc4ccc(C#N)cn4)CC[C@@H]32)C1 [Example 22] was tested, and the IC50 was < 100 nM.
In the case of CCOC[C@@]1(O)CC[C@H]2[C@H](CC[C@@H]3[C@@H]2CC[C@]2(C)[C@@H](C(=O)Nc4cccnc4F)CC[C@@H]32)C1 [Example 66, (3R,5R,8R,9R,10S,13S,14S,17S)-3-(ethoxymethyl)-N-(2-fluoropyridin-3-yl)-3-hydroxy-13-methylhexadecahydro-1H-cyclopenta[a]phenanthrene-17-carboxamide], the IC50 is reported as < 100 nM.
CCC[C@@]1(O)CC[C@@]2(C)[C@H](CC[C@@H]3[C@@H]2CC[C@]2(C)[C@@H](C(=O)Nc4ccc(C#N)cn4)CC[C@@H]32)C1 [Example 68, (3R,5R,8R,9S,10S,13S,14S,17S)-N-(5-cyanopyridin-2-yl)-3-hydroxy-10, 13-dimethyl-3-propylhexadecahydro-1H-cyclopenta[a]phenanthrene-17-carboxamide] was tested, and the IC50 was < 100 nM.
Cc1nc2n(c1NC(=O)[C@H]1CC[C@H]3[C@@H]4CC[C@@H]5C[C@](C)(O)CC[C@@H]5[C@H]4CC[C@]13C)CCCC2 [Example 13, (3R,5R,8R,9R,10S,13S,14S,17S)-3-hydroxy-3,13-dimethyl-N-(2-methyl-5,6,7,8-tetrahydroimidazo[1,2-a]pyridin-3-yl)hexadecahydro-1H-cyclopenta[a]phenanthrene-17-carboxamide] showed an IC50 of 100 to 1000 nM.
With COC[C@@]1(O)CC[C@H]2[C@H](CC[C@@H]3[C@@H]2CC[C@]2(C)[C@@H](C(=O)Nc4cccc(C)n4)CC[C@@H]32)C1 [Example 38] the IC50 was < 100 nM.
With CCOC[C@@]1(O)CC[C@@]2(CC)[C@H](CC[C@H]3[C@@H]4CC[C@H](C(=O)Nc5cc(C#N)nn5C)[C@@]4(C)CC[C@@H]32)C1 [Example 35] the IC50 was < 100 nM.
In the case of COC[C@@]1(O)CC[C@H]2[C@H](CC[C@@H]3[C@@H]2CC[C@]2(C)[C@@H](C(=O)Nc4ccc(N5CCCC5=O)nc4C)CC[C@@H]32)C1 [Example 49], the IC50 is reported as < 100 nM.
For CCOC[C@@]1(O)CC[C@H]2[C@H](CC[C@@H]3[C@@H]2CC[C@]2(C)[C@@H](C(=O)Nc4ccnn4C4CCCC4)CC[C@@H]32)C1 [Example 55], the IC50 was < 100 nM.
With CCC[C@@]1(O)CC[C@H]2[C@H](CC[C@@H]3[C@@H]2CC[C@]2(C)[C@@H](C(=O)Nc4ccc(C#N)cn4)CC[C@@H]32)C1 [Example 67, (3R,5R,8R,9R,10S,13S,14S,17S)-N-(5-cyanopyridin-2-yl)-3-hydroxy-13-methyl-3-propylhexadecahydro-1H-cyclopenta[a]phenanthrene-17-carboxamide] the IC50 was < 100 nM.
For CCOC[C@@]1(O)CC[C@H]2[C@H](CC[C@@H]3[C@@H]2CC[C@]2(C)[C@@H](C(=O)Nc4ncc(C#N)cc4C)CC[C@@H]32)C1 [Example 23], the IC50 was 100 to 1000 nM.
